Assays:
[1] = tested on: Aβ production; test: Cellular Aβ IC50 determination (Aβ40 sandwich ELISA); format: cell-based; settings: Cricetulus griseus; Aβ40, Chinese hamster ovary cells over-expressing human APP695 with London and Swedish mutations, 24 h incubation
Procedure: The potency of compounds against memapsin 2 activity was determined in a cellular assay of Aβ production. […] Chinese hamster ovary cells that over-express human APP695 with the London and Swedish mutations were seeded in multi-well plates at 10% confluency. Compounds were dissolved in DMSO to concentrations near 1 mM, and diluted into culture media to a final concentration near 4 μM (final 0.4% DMSO). Compounds were diluted serially and applied to cells in multi-well plates 48 h after seeding. Incubation was continued in 5% CO2 at 37 degrees C. for 24 h. Aliquots were removed and assayed for Aβ40 content using a sandwich ELISA (BioSource International). Amount of Aβ40 over the range of concentration of compounds, relative to control incubations, were fit to a 4-parameter IC50 model.

[2] = biological target: memapsin 2 (Homo sapiens, UniProt P56817); test: Inhibition of memapsin 2 beta-secretase activity toward fluorogenic substrate FS-2; format: biochemical; settings: pH 4, 37° C., 20 minutes pre-incubation, fluorogenic substrate FS-2, tight-binding model; read-out: M2 Ki
[3] = biological target: Cathepsin D (Homo sapiens, UniProt P07339); test: Inhibition of cathepsin D activity (MALDI-TOF, substrate peptide […]); format: biochemical; settings: pH 4.1, 37 degrees C., read-out: Cath D Ki
Chain of Cathepsin D (P07339 65-412, species assumed): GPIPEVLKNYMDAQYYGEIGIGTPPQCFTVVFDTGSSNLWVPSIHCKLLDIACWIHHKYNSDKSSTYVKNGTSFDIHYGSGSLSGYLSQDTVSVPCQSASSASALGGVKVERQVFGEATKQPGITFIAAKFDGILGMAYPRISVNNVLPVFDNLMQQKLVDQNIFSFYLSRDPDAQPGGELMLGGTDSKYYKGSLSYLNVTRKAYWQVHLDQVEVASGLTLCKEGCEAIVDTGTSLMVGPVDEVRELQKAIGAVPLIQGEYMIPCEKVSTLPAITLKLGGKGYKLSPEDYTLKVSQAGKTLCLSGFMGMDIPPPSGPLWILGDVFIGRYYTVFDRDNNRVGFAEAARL

Chain of memapsin 2 (P56817 46-501): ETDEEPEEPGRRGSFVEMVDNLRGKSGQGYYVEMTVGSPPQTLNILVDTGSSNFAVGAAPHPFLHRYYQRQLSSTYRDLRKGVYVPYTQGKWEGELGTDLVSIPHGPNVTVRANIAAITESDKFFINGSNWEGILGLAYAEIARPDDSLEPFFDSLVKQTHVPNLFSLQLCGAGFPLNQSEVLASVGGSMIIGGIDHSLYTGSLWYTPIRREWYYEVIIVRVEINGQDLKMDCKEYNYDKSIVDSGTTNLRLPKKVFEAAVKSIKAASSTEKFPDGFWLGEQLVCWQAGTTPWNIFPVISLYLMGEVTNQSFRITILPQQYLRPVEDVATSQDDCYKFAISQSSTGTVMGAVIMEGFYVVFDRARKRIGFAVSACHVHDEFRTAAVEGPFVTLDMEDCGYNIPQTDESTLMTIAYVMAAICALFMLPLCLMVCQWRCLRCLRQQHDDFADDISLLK

Row | SMILES | IC50 [1] | Ki [2] | Ki [3]
1 | CC(=O)NC[C@H](NC(=O)[C@@H](C)Cc1nc(C)cs1)C(=O)N[C@@H](CC(C)C)[C@@H](O)C[C@@H](C)C(=O)N[C@H](C(=O)NCC(C)C)C(C)C [(2R,4S,5S)-5-((S)-3-acetamido-2-((S)-2-methyl-3-(4-methylthiazol-2-yl)propanamido)propanamido)-4-hydroxy-N-((S)-1-(isobutylamino)-3-methyl-1-oxobutan-2-yl)-2,7-dimethyloctanamide] | 6 to 100 µM | < 100 nM | 100 to 600 nM
2 | Cc1csc(C[C@H](C)C(=O)N[C@@H](CN(C)S(C)(=O)=O)C(=O)N[C@@H](CC(C)C)[C@@H](O)C[C@@H](C)C(=O)N[C@H](C(=O)NCC(C)C)C(C)C)n1 [(2R,4S,5S)-4-hydroxy-N-((S)-1-(isobutylamino)-3-methyl-1-oxobutan-2-yl)-2,7-dimethyl-5-((S)-2-((S)-2-methyl-3-(4-methylthiazol-2-yl)propanamido)-3-(N-methylmethylsulfonamido)propanamido)octanamide] | 6 to 100 µM | 100 to 600 nM | 
3 | Cc1csc(C[C@H](C)C(=O)N[C@@H](CNS(C)(=O)=O)C(=O)N[C@@H](CC(C)C)[C@@H](O)C[C@@H](C)C(=O)N[C@H](C(=O)NCC(C)C)C(C)C)n1 [(2R,4S,5S)-4-hdroxy-N-((S)-1-(isobutylamino)-3-methyl-1-oxobutan-2-yl)-2,7-dimethyl-5-((S)-2-((S)-2-methyl-3-(4-methylthiazol-2-yl)propanamido)-3-(methylsulfonamido)propanamido)octanamide] | < 6 µM | < 100 nM | < 100 nM
4 | CC[C@@H](Cc1nc(C)cs1)C(=O)N[C@@H](CN(C)OC)C(=O)N[C@@H](CC(C)C)[C@@H](O)C[C@@H](C)C(=O)N[C@H](C(=O)NCC(C)C)C(C)C [(2R,4S,5S)-4-hydroxy-N-((S)-1-(isobutylamino)-3-methyl-1-oxobutan-2-yl)-5-((S)-3-(methoxy(methyl)amino)-2-((S)-2-((4-methylthiazol-2-yl)methyl)butanamido)propanamido)-2,7-dimethyloctanamide] | > 100 µM | 100 to 600 nM | 
5 | Cc1nc(COC(=O)N[C@@H](CC(N)=O)C(=O)N[C@@H](CC(C)C)[C@@H](O)C[C@@H](C)C(=O)N[C@H](C(=O)NCC(C)C)C(C)C)c(C)o1 [(2,5-dimethyloxazol-4-yl)methyl (S)-4-amino-1-((4S,5S,7R)-5-hydroxy-8-((S)-1-(isobutylamino)-3-methyl-1-oxobutan-2-ylamino)-2,7-dimethyl-8-oxooctan-4-ylamino)-1,4-dioxobutan-2-ylcarbamate] |  | 100 to 600 nM | < 100 nM
6 | Cc1nc(COC(=O)N[C@@H](CC(=O)NCc2ccncc2)C(=O)N[C@@H](CC(C)C)[C@@H](O)C[C@@H](C)C(=O)N[C@H](C(=O)NCC(C)C)C(C)C)c(C)o1 [(2,5-dimethyloxazol-4-yl)methyl (5S,8S,9S,11R,14S)-9-hydroxy-8-isobutyl-14-isopropyl-11,18-dimethyl-3,6,12,15-tetraoxo-1-(pyridin-4-yl)-2,7,13,16-tetraazanonadecan-5-ylcarbamate] |  | 100 to 600 nM | < 100 nM
7 | CC[C@@H](Cn1nc(C)cc1C)C(=O)N[C@@H](CC(N)=O)C(=O)N[C@@H](CC(C)C)[C@@H](O)C[C@@H](C)C(=O)N[C@H](C(=O)NCC(C)C)C(C)C [(S)-2-((S)-2-((3,5-dimethyl-1H-pyrazol-1-yl)methyl)butanamido)-N1-((4S,5S,7R)-5-hydroxy-8-((S)-1-(isobutylamino)-3-methyl-1-oxobutan-2-ylamino)-2,7-dimethyl-8-oxooctan-4-yl)succinamide] |  | 100 to 600 nM | < 100 nM

More lines, now with the values ahead:

Row | IC50 [1] | Ki [2] | Ki [3] | SMILES
8 | < 6 µM | < 100 nM | < 100 nM | CC[C@@H](Cc1nc(C)cs1)C(=O)N[C@@H](CNC(=O)OC(C)C)C(=O)N[C@@H](CC(C)C)[C@@H](O)C[C@@H](C)C(=O)N[C@H](C(=O)NCC(C)C)C(C)C [isoproyl (S)-3-((4S,5S,7R)-5-hydroxy-8-((S)-1-(isobutylamino)-3-methyl-1-oxobutan-2-ylamino)-2,7-dimethyl-8-oxooctan-4-ylamino)-2-((S)-2-((4-methylthiazol-2-yl)methyl)butanamido)-3-oxopropylcarbamate]
9 | < 6 µM | < 100 nM | 100 to 600 nM | Cc1csc(C[C@H](C)C(=O)N[C@@H](CNC(=O)OC(C)(C)C)C(=O)N[C@@H](CC(C)C)[C@@H](O)C[C@@H](C)C(=O)N[C@H](C(=O)NCc2ccncc2)C(C)C)n1 [tert-butyl (S)-3-(4S,5S,7R)-hydromxy-2,7-dimethyl-8-((S)-3-methyl-1-oxo-1-(pyridin-4-ylmethylamino)butan-2-ylamino)-8-oxooctan-4-ylamino)-2-((S)-2-methyl-3-(4-methylthiazol-2-yl)propanamido)-3-oxopropylcarbamate]
10 | 6 to 100 µM | < 100 nM | < 100 nM | Cc1cc(C)n(C[C@H](C)C(=O)N[C@@H](CNC(=O)O[C@H]2CCOC2)C(=O)N[C@@H](CC(C)C)[C@@H](O)C[C@@H](C)C(=O)N[C@H](C(=O)NCC(C)C)C(C)C)n1 [(S)-tetrahydrofuran-3-yl (S)-2-((S)-3-(3,5-dimethyl-1H-pyrazol-1-yl)-2-methylpropanamido)-3-((4S,5S,7R)-5-hydroxy-8-((S)-1-(isobutylamino)-3-methyl-1-oxobutan-2-ylamino)-2,7-dimethyl-8-oxooctan-4-ylamino)-3-oxopropylcarbamate]
11 | < 6 µM | < 100 nM | < 100 nM | Cc1nc(C[C@H](C)C(=O)N[C@@H](CNC(=O)OC(C)(C)C)C(=O)N[C@@H](CC(C)C)[C@@H](O)C[C@@H](C)C(=O)N[C@H](C(=O)NCC(C)C)C(C)C)c(C)o1 [tert-butyl (S)-2-((S)-3-(2,5-dimethyloxazol-4-yl)-2-methylpropanamido)-3-((4S,5S,7R)-5-hydroxy-8-((S)-1-(isobutylamino)-3-methyl-1-oxobutan-2-ylamino)-2,7-dimethyl-8-oxooctan-4-ylamino)-3-oxopropylcarbamate]
12 | 6 to 100 µM | < 100 nM |  | Cc1csc(C[C@H](C)C(=O)N[C@@H](CNC(=O)OC(C)(C)C)C(=O)N[C@@H](Cc2cc(F)cc(F)c2)[C@@H](O)C[C@@H](C)C(=O)N[C@H](C(=O)NCC(C)C)C(C)C)n1 [tert-butyl (S)-3-((2S,3S,5R)-1-(3,5-difluorophenyl)-3-hydroxy-6-((S)-1-(isobutylamino)-3-methyl-1-oxobutan-2-ylamino)-5-methyl-6-oxohexan-2-ylamino)-2-((S)-2-methyl-3-(4-methylthiazol-2-yl)propanamido)-3-oxopropylcarbamate]
13 | 6 to 100 µM | < 100 nM |  | CC[C@@H](Cn1nc(C)cc1C)C(=O)N[C@@H](CNC(=O)OC(C)(C)C)C(=O)N[C@@H](CC(C)C)[C@@H](O)C[C@@H](C)C(=O)N[C@H](C(=O)NCc1ccccn1)C(C)C [tert-butyl (S)-2-((S)-2-((3,5-dimethyl-1H-pyrazol-1-yl)methyl)butanamido)-3-((4S,5S,7R)-5-hydroxy-2,7-dimethyl-8-((S)-3-methyl-1-oxo-1-(pyridin-2-ylmethylamino)butan-2-ylamino)-8-oxooctan-4-ylamino)-3-oxopropylcarbamate]
14 |  | 100 to 600 nM | < 100 nM | COCO[C@@H](Cn1nc(C)cc1C)C(=O)N[C@@H](CNC(=O)OC(C)(C)C)C(=O)N[C@@H](CC(C)C)[C@@H](O)C[C@@H](C)C(=O)N[C@H](C(=O)NCC(C)C)C(C)C [tert-butyl (S)-2-((S)-3-(3,5-dimethyl-1H-pyrazol-1-yl)-2-(methoxymethoxy)propanamido)-3-((4S,5S,7R)-5-hydroxy-8-((S)-1-(isobutylamino)-3-methyl-1-oxobutan-2-ylamino)-2,7-dimethyl-8-oxooctan-4-ylamino)-3-oxopropylcarbamate]
15 |  | 100 to 600 nM | < 100 nM | Cc1csc(C[C@H](C)C(=O)N[C@@H](CC(N)=O)C(=O)N[C@@H](CC(C)C)[C@@H](O)C[C@@H](C)C(=O)N[C@H](C(=O)NCC(C)C)C(C)C)n1 [(S)-N1-((4S,5S,7R)-5-hydroxy-8-((S)-1-(isobutylamino)-3-methyl-1-oxobutan-2-ylamino)-2,7-dimethyl-8-oxooctan-4-yl)-2-((S)-2-methyl-3-(4-methylthiazol-2-yl)propanamido)succinamide]
16 |  | 100 to 600 nM | < 100 nM | Cc1csc(C[C@H](C)C(=O)N[C@@H](CC(=O)N(C)C)C(=O)N[C@@H](CC(C)C)[C@@H](O)C[C@@H](C)C(=O)N[C@H](C(=O)NCC(C)C)C(C)C)n1 [(S)-N1-((4S,5S,7R)-5-hydroxy-8-((S)-1-(isobutylamino)-3-methyl-1-oxobutan-2-ylamino)-2,7-dimethyl-8-oxooctan-4-yl)-N4,N4-dimethyl-2-((S)-2-methyl-3-(4-methylthiazol-2-yl)propanamido)succinamide]
17 | < 6 µM | < 100 nM |  | CC[C@@H](Cn1nc(C)cc1C)C(=O)N[C@@H](CNC(=O)OC(C)(C)C)C(=O)N[C@@H](CC(C)C)[C@@H](O)C[C@@H](C)C(=O)N[C@H](C(=O)NCc1ccncc1)C(C)C [tert-butyl (S)-2-((S)-2-((3,5-dimethyl-1H-pyrazol-1-yl)methyl)butanamido)-3-((4S,5S,7R)-5-hydroxy-2,7-dimethyl-8-((S)-3-methyl-1-oxo-1-(pyridin-4-ylmethylamino)butan-2-ylamino)-8-oxooctan-4-ylamino)-3-oxopropylcarbamate]

— US7659289B2, “Hydroxyethylene-based β-secretase inhibitors and use thereof” (CoMentis, Inc., priority 2004, dated 2010)
